In patent publication US11266642B2, “Small molecule inhibitors of HLA-DR3 binding for treating autoimmune thyroiditis” (ICAHN SCHOOL OF MEDICINE AT MOUNT SINAI, priority 2015, dated 2022):
Read-outs that look alike come from different tables or passages of the source.

Legend:
Interferon (IFN gamma) = test: Cytokine production by immunized mice splenocytes (Milliplex/Luminex); format: cell-based; details: Mus musculus, Splenocyte, 1 μM compound, 48 hours
Protocol: Immunized mice splenocytes were incubated with 1 μM compound Ia together with human thryroglobulin (40 μg/mL) or Tg.2098 (20 μg/mL) to assess the inhibition of cytokines production by compound Ia. […] Milliplex mouse cytokines/chemokine magnetic panel (Catalog no. MCYTOMAG-70K, EMD Millipore Corporation, Billerica, Mass.) was used to assay the cytokines. Splenocytes were plated at 2×10^6 cells per well in 500 uL of medium (RPMI/10% FBS). Supernatants were collected 48 hours after stimulation with hTg or peptides and stored at −80° C. until the assay was performed. To begin the assay, the 96-well plate supplied in the kit was washed with the wash buffer supplied and the plate was shaken for 10 min at room temperature. Standards and quality controls were added, followed by the samples. The pre-mixed beads (IFN gamma, IL-2, IL-4, IL-10) were sonicated and vortexed, and then added to the wells. After shaking the plate overnight at 4° C., the plate was washed twice with wash buffer. Detection antibodies were added for 1 h at room temperature, and Streptavidin-Phycoerythrin was added for 30 min at room temperature. The plate was washed twice and sheath fluid was added to resuspend the beads for 5 min before reading in Luminex 200 with xPONENT software (Luminex, Austin, Tex.) […]

[1] = tested on: T-cell proliferative responses to hTg; test: In vivo IP administration in hTg-immunized NOD-DR3 mice (EAT), T-cell proliferation CFSE assay; set-up: species or system mouse; details: IP 125 μg on days -2, -1, 5, 6; sacrifice day 21; vehicle 2.3 ± 0.5; p=0.0432
Description: (§1) Mice transgenic for DRB1*0301 were originally generated by G. J Hämmerling and co-workers as previously described [Strauss et al. Immunogenetics 40, 104-108 (1994)]. Briefly, the DR3 (DRA1*0101/DRB1*0301) transgenes were inserted into (C57BL/6×DBA/2) F1 embryos and the progeny were back-crossed to B10.Q mice. The DR3 mice were crossed with I-Aβ knockouts (C57BL/6×129) to obtain mice lacking murine MHC class II and expressing human DR3. The transgenic mouse line was maintained by intercrossing. The background non-MHC genes in the DR3 transgenic line was 50% C57BL/10 genes and 50% contribution from CBA, C57BL/6, and 129 genes. These mice were then back-crossed into NOD background to produce the NOD-DR3 mice [Flynn et al. J Autoimmun, 17, 7-15 (2001)]. The transgene was confirmed to be HLA-DRβ1-Arg74 positive. […]
Seven female NOD-DR3 mice (6-10 weeks old) were injected IP with […] Compound Ia on day (−2) and day (−1), followed by SQ immunization of human thyroglobulin (hTg) mixed with CFA on day 0. […] The stimulation index was calculated by using the formula described above: Stimulation index=[% proliferating lymphocytes (hTg, peptide or mitogen-treated)]/[% proliferating lymphocytes (medium-treated)].

[2] = tested on: T-cell proliferative responses to hTg or Tg.2098; test: In vivo PO administration in hTg-immunized NOD-DR3 mice (EAT), T-cell proliferation CFSE assay; set-up: species or system mouse; details: PO gavage 250 μg on days -2, -1, 5, 6, sacrifice day 21
Description: as §1, with “positive. Mice were bred in a pathogen-free facility (Icahn School of Medicine at Mount Sinai, New York, N.Y.), and expression of HLA-DR3 was tested by PCR using DR3-specific primers: forward primer 5′ CGCTTCGACAGCGAC 3′ (SEQ ID NO:4) and reverse primer 5′ GACAAATCCACACTCCAC 3′ (SEQ ID NO:5).” for “positive.”
Three female NOD-DR3 mice (6 to 10 weeks old) were fed with 250 μg of Compound Ia PO using gavage on day (−2) and day (−1), followed by SQ immunization of hTg mixed with CFA on day 0. […] Stimulation index was calculated as before.

## COc1ccc2cc1Oc1ccc(cc1)C[C@H]1c3c(cc4c(c3Oc3cc5c(cc3OC)CCN(C)[C@@H]5C2)OCO4)CCN1C [Compound Ia, cepharanthine]
Interferon (IFN gamma); Tg.2098 20 μg/mL, p<0.0001, read-out: Interferon inhibition, Tg.2098 stimulation
  inhibition at 1 µM: 48.8%
Interferon (IFN gamma); hTg 40 μg/mL, p=0.002, read-out: Interferon inhibition, hTg stimulation
  inhibition at 1 µM: 38.7%
[1]
  Stimulation index, T-cell stimulation in response to hTg: 1.3 ± 0.2
[2]; vehicle 1.8 ± 0.2, p=0.0285
  Stimulation index, T-cell stimulation in response to hTg: 1.0 ± 0.2
[2]; vehicle 1.9 ± 0.3, p=0.0147
  Stimulation index, T-cell stimulation in response to Tg.2098: 0.9 ± 0.1
